The results in this text go back to the NIST ThermoML archive (doi:10.1016/j.jct.2009.06.003).

± gives the expanded uncertainty stated by the source.

The conditions of data set [1]: DTA.
Data set [2] in a line: Molar enthalpy of transition or fusion. The conditions noted are these: DSC.

In the case of `CCCC[n+]1ccc(C)cc1.O=S(=O)([N-]S(=O)(=O)C(F)(F)F)C(F)(F)F`, in data set [1] (Crystal), the Normal melting temperature is 18.2 ± 0.5 °C. In data set [1], the Glass transition temperature was -77.2 ± 2 °C. Also, the “Molar enthalpy of transition or fusion” value in data set [2] (Crystal) was 5.24 ± 0.158 kcal/mol.

Regarding `Cc1cc[n+](C)cc1.Cc1ccc(S(=O)(=O)[O-])cc1` [1,4-dimethylpyridinium 4-methylbenzenesulfonate], in data set [1] (Crystal), the Normal melting temperature was determined as 151.7 ± 0.5 °C. Moreover, the “Molar enthalpy of transition or fusion” value in data set [2] (Crystal) was determined as 7.38 ± 0.21 kcal/mol.

Consider `CCCC[n+]1cccc(C)c1.Cc1ccc(S(=O)(=O)[O-])cc1` [1-butyl-3-methylpyridinium 4-methylbenzenesulfonate], for which the Normal melting temperature in data set [1] (Crystal) is 50.6 ± 0.5 °C. In addition, the Glass transition temperature in data set [1] was -53.0 ± 2 °C. Besides, the “Molar enthalpy of transition or fusion” value in data set [2] (Crystal) is 0.366 ± 0.0406 kcal/mol.

Take `CCn1cc[n+](C)c1.N#C[S-]` [1-ethyl-3-methylimidazolium thiocyanate]: in data set [1], the Glass transition temperature is -97.5 ± 2 °C.

Turning to `CCCCCCn1cc[n+](C)c1.N#C[S-]` [1-hexyl-3-methylimidazolium thiocyanate], the Glass transition temperature in data set [1] was -83.2 ± 2 °C.

Consider `CCCCCC[n+]1cccc(C)c1.Cc1ccc(S(=O)(=O)[O-])cc1` [1-hexyl-3-methylpyridinium 4-methylbenzenesulfonate], for which, in data set [1] (Crystal), the Normal melting temperature is 56.2 ± 0.5 °C. Further, the Glass transition temperature in data set [1] is -39 ± 2 °C. Moreover, in data set [2] (Crystal), the “Molar enthalpy of transition or fusion” value was determined as 2.41 ± 0.0884 kcal/mol.

Regarding `Cc1cc(C)[nH+]c(C)c1.Cc1ccc(S(=O)(=O)[O-])cc1` [2,4,6-trimethylpyridinium 4-methylbenzenesulfonate], the Normal melting temperature in data set [1] (Crystal) was found to be 130.6 ± 0.5 °C. The Glass transition temperature in data set [1] is -7.8 ± 2 °C. In data set [2] (Crystal), the “Molar enthalpy of transition or fusion” value came to 5.47 ± 0.163 kcal/mol.

Consider `CC[S+](CC)CC.O=S(=O)([N-]S(=O)(=O)C(F)(F)F)C(F)(F)F` [triethylsulfonium bis((trifluoromethyl)sulfonyl)imide], for which, in data set [1] (Crystal 1), the Normal melting temperature is -10.3 ± 0.5 °C. Also, the Triple point temperature in data set [1] (Crystal 2) was determined as 241.1 ± 2 K. Besides, in data set [1], the Glass transition temperature was -73.8 ± 2 °C. In addition, the “Molar enthalpy of transition or fusion” value in data set [2] (Crystal 1) came out at 1.67 ± 0.0669 kcal/mol; in data set [2] (Crystal 2), 2.25 ± 0.0813 kcal/mol.
